Data: US7098216B2, “Thiazolopyrimidines useful as TNFα inhibitors” (The Regents of the University of California, priority 1999, dated 2006)
Where two headings read alike, the source gives them in different places.

How the values were obtained:
[1] = tested on: TNFα production in human monocytes; test: Inhibition of LPS-induced TNFα production in human monocytes (ELISA); assay type: cell-based; conditions: Monocyte
Protocol: (§1) Peripheral blood mononuclear cells were isolated from normal human blood on Hypaque-Ficoll density gradients. 100 μl aliquots of monocytes were placed onto 96 well microtiter plates at a density of […] in RPMI-1640 medium containing 10% autologous plasma. After incubation for 24 hrs., various concentrations of the test compound in DMSO were added to the plated cells in a volume of 100 μl and incubated for 1 hr. After incubation, […] of LPS was added to each well.
(§2) Eighteen hours after exposure of the plated cells to LPS, 100 μl of medium was collected from each well and assayed (by ELISA, R&D Systems) for release of IL-1 and TNFα, using recombinant human TNF as a standard (n=5). The sensitivity of the assay ranged from 10–100 pg/ml.

adjuvant arthritis = test: Adjuvant arthritis in Lewis rats; assay type: in vivo; conditions: 100 mg/kg by gavage daily
Protocol: Since TNFα antagonists have shown considerable value in the treatment of rheumatoid arthritis, compound 8a was evaluated in an animal model that is TNFα dependent. Adjuvant arthritis is an acute inflammatory disease induced in certain rat strains by the administration of heat-killed mycobacteria dispersed in […]. The disease is manifest by severe joint swelling, mainly of the ankles and feet.
Two groups of seven Lewis rats each were immunized intradermally with 5 mg of heat-killed mycobacterium tuberculosis emulsified in incomplete Freund's adjuvant. One day later, one group of animals (N=7) received 100 mg/kg of 8a by gavage. Another group of animals received no treatment. The oral dosing was continued every day up to day 30. […] The mean arthritis score can vary from 0 to 4 for each limb, yielding a maximum score of 16. Note that the untreated animals (group 1) achieved a mean arthritis score of 10 on day 18. In contrast, the treated animals reach a mean arthritis score of 5, for 50% inhibition.

[2] = tested on: TNFα plasma concentration; test: Oral 8a dose response on LPS-induced plasma TNFα in mice; assay type: in vivo, ICR mice
Protocol: ICR mice were dosed orally at 25, 50 and 100 mg/kg of 8a in cyclodextrin, prepared as in Example 7. After 1 hr., each mouse was injected with E. coli LPS (1 μg/mouse). Two hours later, 250 μl samples of blood were obtained by retro-orbital bleeding without anesthetization. The blood was heparinized, centrifuged for 10 min. at 10 K rpm (4° C.) and TNFα determined by ELISA. […] The two bars at the top of the figure show the baseline levels of TNFα in the mouse plasma, which were undetectable, and the effects of 8a administered alone, which were negligible.

[3] = Acute toxicity testing in ICR mice, IP; assay type: in vivo; conditions: five daily IP injections at 100 mg/kg, 30 days of observation
Protocol: ICR mice (ca. 20 g) were injected IP for 5 days with 50 mg/kg, and 100 mg/kg of each of 8a and 8b dispersed in aqueous hydroxypropyl β-cyclodextrin (50% w/v).

[4] = tested on: IL-1β production by human monocytes; test: Inhibition of LPS-induced IL-1β production in human monocytes (ELISA); assay type: cell-based; conditions: Monocyte; human monocytes stimulated with LPS (FIG. 2); read-out: 50% inhibitory dose, IL-1 production
Protocol: as §1, §2
FIG. 2 summarizes the effects of 8b and 8a on the production of IL-1β by human monocytes stimulated with LPS, under the same conditions used for the TNFα study.

Jurkat cell line = test: Jurkat cell growth, MTT assay; assay type: cell-based, human; conditions: concentration below 50 μM, 72 h, MTT (FIG. 3)
Protocol: In this experiment, cells of the continuous human lymphoblastoid Jurkat cell line were suspended at 1×10^5/ml in complete medium containing various amounts of 8a and 8b dissolved in DMSO. Seventy-two hours later the cell density was assessed using the MTT assay, which measures the reduction of a tetrazolium dye. The cell densities were compared to control cultures lacking any additional drugs.

TNFα in the plasma = test: Time course of TNFα inhibition after oral 8a in LPS-injected mice; assay type: in vivo, ICR mice; conditions: 100 mg/kg by gavage, LPS 24 hours later (FIG. 6)
Protocol: The purpose of these experiments was to determine how long after administration of compound 8a by gavage could its inhibitory effects on LPS-induced TNFα production be detected. Accordingly, all the ICR in this instance were given 8a at a dosage of 100 mg/kg by gavage. Then at 1, 4, 10, and 24 hours later, each animal received 1 μg/ml IP LPS, and two hours later (i.e., at 3, 6, 12, and 26 hours), blood was removed for TNFα ELISA.

[5] = human monocytes, LPS, 18 h, ELISA (FIG. 1), read-out: IC50, TNFα production

Row | IC50 [1, 5] | SMILES | IC50 ([1]; Homo sapiens, 18 h, read-out: IC50, TNFα production) | IC50 ([1]; Homo sapiens, read-out: TNF inhib. (IC50)) | mean arthritis score (adjuvant arthritis; maximum score 16, untreated 10 on day 18 (FIG. 7)) | inhibition at 100 mg/kg (adjuvant arthritis; Rattus norvegicus, po, versus untreated, read-out: inhibition of arthritis score) | effect on TNFα plasma concentration ([2]; 25 mg/kg oral, LPS 1 h later, blood 2 h after LPS (FIG. 5)) | effect on TNFα plasma concentration ([2]; 50 mg/kg oral, compared with 25 mg/kg (FIG. 5)) | effect of 8a administered alone on plasma TNFα ([2]; without LPS (FIG. 5)) | weight change or lethargy [3] | IC50 [4] | growth inhibitory activity on Jurkat cells (Jurkat cell line) | accumulation of TNFα in plasma of LPS-injected mice (TNFα in the plasma)
1 | – | CCOC(=O)CCCn1c(=O)c2sc(N)nc2n(C)c1=O [8a, Ethyl 4-[2-Amino-4-methyl-5,7-dioxothiazolo [4,5-d]pyrimidin-6-yl]-butanoate] | 0.676 µM | 0.676 µM | 5 | 50% | significant inhibitory effect | greater | negligible | no weight change or detectable lethargy | 1 to 3 µM | neither 8b nor 8a had significant growth inhibitory activity | completely inhibited
2 | 1.15 µM | Fc1ccc(-c2ncn(CCCN3CCOCC3)c2-c2ccncc2)cc1 [SB-210313, reference compound] | – | – | – | – | – | – | – | – | – | – | –
3 | 2.5 µM | COc1ccc(C2CNC(=O)C2)cc1OC1CCCC1 (stereo not shown) [rolipram, reference compound] | – | – | – | – | – | – | – | – | – | – | –
